Measurements from paper PMC8533253, “Bis-thiobarbiturates as Promising Xanthine Oxidase Inhibitors: Synthesis and Biological Evaluation” (Biomedicines, 2021).

Assays:
Xanthine oxidase (XO) = target: T1, Xanthine oxidase (XO) (Bos taurus, UniProt P80457); assay: XO inhibitory assay (spectrophotometric quantification of uric acid formation at 295 nm); assay type: biochemical; conditions: read-out: XO inhibition (%)
T1 construct: purchased Sigma-Aldrich X4875
Procedure: XO inhibitory and antioxidant assays were performed in triplicate while antiproliferative assay was conducted in quadruplicate. For each assay, at least two independent experiments were performed. An initial screening at the concentration of 30 μM for all compounds under study was performed in each in vitro study. […] Half-maximal inhibitory concentration (IC50) studies were performed for drugs used as a reference and for the most promising bis-thiobarbiturate in XO inhibitory, antioxidant, and cytotoxicity assays.
The XO inhibitory activity was evaluated by spectrophotometric quantification of uric acid formation. The 50 mM dihydrogen phosphate buffer (pH 7.4) was used to dilute all solutions. For each assay performed, 50 μL of the test solution and 50 μL of the 0.1 U/mL XO (Sigma-Aldrich X4875, St. Louis, MO, USA) solution were added in each well of an Elisa microplate (96 wells) followed by 5 min of incubation at 37 °C. […] The reaction started with the addition of 150 μL of a xanthine solution (420 μM). The absorbance was recorded at a wavelength of 295 nm every minute for 10 min. To obtain only the absorbance associated with uric acid, a solution consisting of 50 μL of the test solution, 150 μL of the xanthine solution, and 50 μL of buffer were used as blank. […] For each compound, the percentage of enzyme inhibition was calculated according to the following formula:% of XO inhibition = [1 − (ABSsample − ABSblank of sample)/ABSnegative control] × 100
(§1) All in vitro results are expressed as mean values ± standard deviation (SD) of at least two independent determinations. The difference between groups was analyzed for each assay by Student’s t-test. The IC50 values were calculated by sigmoidal fitting analysis considering a 95% confidence interval.

[1] = Antioxidant assay, DPPH method; conditions: 60 min
Procedure: (§2) XO inhibitory and antioxidant assays were performed in triplicate while antiproliferative assay was conducted in quadruplicate. For each assay, at least two independent experiments were performed. An initial screening at the concentration of 30 μM for all compounds under study was performed in each in vitro study. A second screening at 5 μM was performed for compounds that originated an inhibitory potential higher than 80% for the XO activity at 30 μM. Half-maximal inhibitory concentration (IC50) studies were performed for drugs used as a reference and for the most promising bis-thiobarbiturate in XO inhibitory, antioxidant, and cytotoxicity assays.
Antioxidant potential was spectrophotometrically evaluated by the 2,2-diphenyl-1-picrylhydrazyl (DPPH, Sigma-Aldrich, St. Louis, MO, USA) method. All solutions and dilutions were prepared in 99.5% ethanol before each experiment. For each assay, 100 μL of the test solution and 100 μL of DPPH solution (0.2 mM) were added to each well of a 96 wells Elisa microplate. […] After 60 min of incubation in dark at rt, the capacity of each compound to reduce DPPH was followed by measuring the absorbance at 517 nm. Ethanol was used as a negative control and Trolox as the positive control. To discount the absorbance of each compound at 517 nm, a blank was performed with 100 μL of each test compound and 100 μL of ethanol. The antioxidant capacity of each sample was calculated according to the following formula:% DPPH scavenging = [1 − (ABSsample − ABSblank of sample)/ABSnegative control] × 100
as §1

[2] = Cytotoxicity assay (MTT) on NHDF; assay type: cell-based, human; conditions: human, NHDF cells (non-tumor human dermal fibroblasts), 30 µM, 72 h, MTT; read-out: Cytotoxicity (% cell viability at 30 µM) NHDF
Procedure: as §2
(§3) The cytotoxic potential of the compounds being studied was evaluated by quantifying the extent of the reduction of 3-(4,5-dimethylthiazol-2-yl)-2,5-diphenyltetrazolium bromide (MTT, VWR, Radnor, PA, USA) on tumor cell lines of the colon (Caco-2) and breast (MCF-7) adenocarcinoma and non-tumor human dermal fibroblasts (NHDF). All cell lines were obtained from the American Type Culture Collection (ATCC, Manassas, VA, USA) and were maintained in 75 cm^2 culture flasks in a humidified air incubator with 5% CO2 at 37 °C. NHDF cells have grown in RPMI 1640 medium (Sigma-Aldrich, St. Louis, MO, USA) supplemented with 10% fetal bovine serum (FBS), 10 mM 4-(2-hydroxyethyl)-1-piperazineethanesulfonic acid (HEPES), 2 mM L-glutamine, 1 mM sodium pyruvate, and 1% antibiotic/antimycotic (Ab: 10,000 units/mL penicillin G, […] streptomycin and 25 μg/mL amphotericin B). MCF-7 cells were cultured in high-glucose Dulbecco’s modified Eagle medium (DMEM, Sigma-Aldrich, St. Louis, MO, USA) supplemented with 10% FBS, and 1% Ab. The Caco-2 cell line was cultured in a high glucose DMEM supplemented with 20% FBS and 1% of the antibiotic mixture (Sp: 10,000 units/mL penicillin G and […] of streptomycin). For the assay, cells were seeded in 96-well plates (2 × 10^4 cells/mL) in the culture medium. After 48 h of adherence, cells were treated with the test solutions and incubated for 72 h. […] Untreated cells were used as a negative control and 5-FU as the positive control. Following incubation, the medium was removed and replaced with a fresh incomplete culture medium (without FBS and Ab or Sp) and MTT solution [5 mg/mL in phosphate buffer saline (PBS)]. After further incubation for 4 h at 37 °C, the medium with MTT was removed, formazan crystals were dissolved in DMSO, and the absorbance was read at 570 nm. Results were expressed as the relative cell proliferation in comparison with the negative control cells.
as §1

[3] = Cytotoxicity/antiproliferative assay (MTT) on Caco-2; assay type: cell-based; conditions: human, read-out: Cytotoxicity (% cell viability at 30 µM) Caco-2
Procedure: as §2, §3, §1

[4] = Cytotoxicity/antiproliferative assay (MTT) on MCF-7; assay type: cell-based; conditions: human, MCF-7 cells (breast adenocarcinoma), read-out: Cytotoxicity (% cell viability at 30 µM) MCF-7
Procedure: as §2, §3, §1

T1 sequence (P80457 whole entry): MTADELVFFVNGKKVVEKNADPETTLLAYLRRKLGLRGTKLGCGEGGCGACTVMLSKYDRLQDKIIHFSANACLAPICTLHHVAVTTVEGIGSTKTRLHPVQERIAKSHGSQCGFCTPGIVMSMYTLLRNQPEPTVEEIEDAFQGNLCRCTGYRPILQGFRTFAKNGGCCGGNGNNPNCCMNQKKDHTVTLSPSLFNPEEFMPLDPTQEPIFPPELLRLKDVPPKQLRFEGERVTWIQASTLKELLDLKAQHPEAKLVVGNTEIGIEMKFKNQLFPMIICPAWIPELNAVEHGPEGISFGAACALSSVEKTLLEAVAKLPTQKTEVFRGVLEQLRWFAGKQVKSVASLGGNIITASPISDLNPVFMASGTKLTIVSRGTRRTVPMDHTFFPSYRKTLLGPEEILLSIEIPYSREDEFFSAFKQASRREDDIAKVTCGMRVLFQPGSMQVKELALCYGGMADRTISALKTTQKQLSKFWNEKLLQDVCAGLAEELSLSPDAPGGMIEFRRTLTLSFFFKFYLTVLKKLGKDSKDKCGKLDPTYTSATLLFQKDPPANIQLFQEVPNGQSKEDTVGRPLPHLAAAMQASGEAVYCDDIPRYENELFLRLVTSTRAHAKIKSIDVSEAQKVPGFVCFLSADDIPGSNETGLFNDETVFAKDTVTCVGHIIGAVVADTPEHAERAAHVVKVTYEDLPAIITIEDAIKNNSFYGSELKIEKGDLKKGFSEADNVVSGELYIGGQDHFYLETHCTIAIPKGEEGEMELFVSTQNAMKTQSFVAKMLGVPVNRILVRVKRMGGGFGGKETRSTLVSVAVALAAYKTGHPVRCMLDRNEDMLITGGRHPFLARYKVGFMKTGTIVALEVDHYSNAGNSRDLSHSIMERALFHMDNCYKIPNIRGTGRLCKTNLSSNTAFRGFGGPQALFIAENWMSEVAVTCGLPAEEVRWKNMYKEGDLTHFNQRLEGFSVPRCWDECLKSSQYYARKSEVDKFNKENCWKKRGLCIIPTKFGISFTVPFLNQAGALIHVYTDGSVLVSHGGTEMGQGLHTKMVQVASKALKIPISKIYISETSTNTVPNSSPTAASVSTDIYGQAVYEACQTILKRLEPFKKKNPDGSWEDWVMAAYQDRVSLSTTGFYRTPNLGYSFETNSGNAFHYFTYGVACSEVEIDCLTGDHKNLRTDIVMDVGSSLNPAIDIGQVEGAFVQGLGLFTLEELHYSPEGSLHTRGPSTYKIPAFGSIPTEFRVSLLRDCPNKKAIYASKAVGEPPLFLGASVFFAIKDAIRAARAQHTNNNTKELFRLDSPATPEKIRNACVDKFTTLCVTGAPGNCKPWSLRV

SMILES	melting point	inhibition at 5 µM (Xanthine oxidase (XO)) [%]	inhibition at 30 µM (Xanthine oxidase (XO)) [%]	DPPH (% scavenging at 30 µM) [1] [%]	viability at 72 h, 30 µM [2] [%]	viability at 72 h, 30 µM [3] [%]	viability at 72 h, 30 µM [4] [%]	IC50 ([1]; read-out: DPPH Scavenging IC50) [µM]
O=c1[nH]c(O)c(C(c2ccc([N+](=O)[O-])cc2)c2c(O)[nH]c(=O)[nH]c2=O)c(=O)[nH]1	227 °C (dec.)	–	–	–	–	–	–	–
Oc1ncnc2[nH]ncc12 [Allo, allopurinol, reference compound]	–	26.9 ± 0.82	88.5	0.48 ± 0.21	–	–	–	–
CCn1c(O)c(C(c2ccccc2)c2c(O)n(CC)c(=S)n(CC)c2=O)c(=O)n(CC)c1=S [Compound 3, 5,5′-(Phenylmethylene)bis(1,3-diethyl-6-hydroxy-2-thioxo-2,3-dihydropyrimidin-4(1H)-one)]	177 to 179 °C	10.4	80.2	34.58 ± 0.96	88.7 ± 1.4	91.2 ± 9.87	90 ± 5.33	–
CCn1c(O)c(C(c2ccc(C)cc2)c2c(O)n(CC)c(=S)n(CC)c2=O)c(=O)n(CC)c1=S [Compound 4, 5,5′-(p-Tolymethylene)bis(1,3-diethyl-6-hydroxy-2-thioxo-2,3-dihydropyrimidin-4(1H)-one)]	163 to 164 °C	–	36.5	42.64 ± 0.81	95.6 ± 7.26	98.6 ± 5.7	90.6 ± 3.92	–
CCn1c(O)c(C(c2ccc(C#N)cc2)c2c(O)n(CC)c(=S)n(CC)c2=O)c(=O)n(CC)c1=S [Compound 5, 4-(Bis(1,3-diethyl-6-hydroxy-4-oxo-2-thioxo-1,2,3,4-tetrtahydropyrimidin-5-yl)methyl)benzonitrile]	199 to 200 °C	52.9	86.1	34.76 ± 1.42	86.5 ± 5.92	62.5 ± 11.9	90.7 ± 4.06	–
O=c1[nH]cc(F)c(=O)[nH]1 [Compound 5-FU, 5-fluorouracil, reference compound]	–	–	–	–	20.9 ± 0.83	37.1 ± 1.51	45.9 ± 4.72	–
CCn1c(O)c(C(c2ccc([N+](=O)[O-])cc2)c2c(O)n(CC)c(=S)n(CC)c2=O)c(=O)n(CC)c1=S [Compound 6, 5,5′-((4-Nitrophenyl)methylene)bis(1,3-diethyl-6-hydroxy-2-thioxo-2,3-dihydropirimidin-4(1H)-one)]	202 to 204 °C	56.8	92.2	34.99 ± 1.32	99.8 ± 5.43	100 ± 4.45	91.7 ± 1.48	–
O=c1[nH]c(=S)[nH]c(O)c1C(c1ccc([N+](=O)[O-])cc1)c1c(O)[nH]c(=S)[nH]c1=O [Compound 7, 5,5′-((4-Nitrophenyl)methylene)bis(6-hydroxy-2-thioxo-2,3-dihydropyrimidin-4(1H)-one)]	225 °C (dec.)	–	20.9	32.41 ± 0.26	96.6 ± 4.32	97.1 ± 3.63	98.7 ± 4.83	–
CCn1c(O)c(C(c2ccc(NC(C)=O)cc2)c2c(O)n(CC)c(=S)n(CC)c2=O)c(=O)n(CC)c1=S [Compound 9, N-(4-(Bis(1,3-diethyl-6-hydroxy-4-oxo-2-thioxo-1,2,3,4-tetrahydropyrimidin-5-yl)methyl)phenyl)acetamide]	178 to 179 °C	–	45.6	39.63 ± 2.26	81.3 ± 8.87	67.5 ± 9.4	90.2 ± 5.7	–
CCn1c(O)c(C(c2ccc(OC)cc2)c2c(O)n(CC)c(=S)n(CC)c2=O)c(=O)n(CC)c1=S [Compound 10, 5,5′-((4-Methoxyphenyl)methylene)bis(1,3-diethyl-6-hydroxy-2-thioxo-2,3-dihydropyrimidin-4(1H)-one)]	139 to 140 °C	–	23.5	38.12 ± 1.56	–	62.6 ± 7.74	100 ± 13	–
CCn1c(O)c(C(c2cccc(O)c2)c2c(O)n(CC)c(=S)n(CC)c2=O)c(=O)n(CC)c1=S [Compound 12, 5,5′-((3-Hydroxyphenyl)methylene)bis(1,3-diethyl-6-hydroxy-2-thioxo-2,3-dihydropyrimidin-4(1H)-one)]	191 to 193 °C	–	72.2	42.92 ± 0.61	85.6 ± 7.17	90.9 ± 3.84	91.7 ± 4.91	–
CCn1c(O)c(C(c2ccccc2[N+](=O)[O-])c2c(O)n(CC)c(=S)n(CC)c2=O)c(=O)n(CC)c1=S [Compound 13, 5,5′-((2-Nitrophenyl)methylene)bis(1,3-diethyl-6-hydroxy-2-thioxo-2,3-dihydropyrimidin-4(1H)-one)]	172 to 173 °C	37.4	89.7	29.90 ± 0.50	75.8 ± 2.41	95.4 ± 4.17	98.2 ± 3.25	–
CCn1c(O)c(C(c2ccc(N(C)C)cc2[N+](=O)[O-])c2c(O)n(CC)c(=S)n(CC)c2=O)c(=O)n(CC)c1=S [Compound 14, 5,5′-((4-(Dimethylamino)-2-nitrophenyl)methylene)bis(1,3-diethyl-6-hydroxy-2-thioxo-2,3-dihydropyrimidin-4(1H)-one)]	143 to 145 °C	56.3 ± 1.21	90.7 ± 0.71	28.04 ± 0.25	80.1 ± 7.69	97.2 ± 2.97	88.1 ± 3.25	–
Cc1nc(-c2ccc(OCC(C)C)c(C#N)c2)sc1C(=O)O [Febuxostat, febuxostat, reference compound]	–	93.9 ± 2.84	95	–	–	–	–	–
Cc1c(C)c2c(c(C)c1O)CCC(C)(C(=O)O)O2 (stereo not drawn) [Trolox, reference compound]	–	–	–	54.86 ± 0.98	–	–	–	23.8 ± 2.13
